Here are results for five molecules from patent US20150175655A1 (priority 2012, published 2015).

The experiment deals with T1, NS3 genotype 3a protease (UniProt Q81258).
T1 construct: Purified NS3 protease domain (amino acids 1-181) of the genotype 1b and 3a virus were generated as above; fused on or other part: N-terminal hexahistidine tag and rTEV protease cleavage site (vector p28-N6H-Tev-NS3(181)3)
T1 sequence (Q81258 1033-1663): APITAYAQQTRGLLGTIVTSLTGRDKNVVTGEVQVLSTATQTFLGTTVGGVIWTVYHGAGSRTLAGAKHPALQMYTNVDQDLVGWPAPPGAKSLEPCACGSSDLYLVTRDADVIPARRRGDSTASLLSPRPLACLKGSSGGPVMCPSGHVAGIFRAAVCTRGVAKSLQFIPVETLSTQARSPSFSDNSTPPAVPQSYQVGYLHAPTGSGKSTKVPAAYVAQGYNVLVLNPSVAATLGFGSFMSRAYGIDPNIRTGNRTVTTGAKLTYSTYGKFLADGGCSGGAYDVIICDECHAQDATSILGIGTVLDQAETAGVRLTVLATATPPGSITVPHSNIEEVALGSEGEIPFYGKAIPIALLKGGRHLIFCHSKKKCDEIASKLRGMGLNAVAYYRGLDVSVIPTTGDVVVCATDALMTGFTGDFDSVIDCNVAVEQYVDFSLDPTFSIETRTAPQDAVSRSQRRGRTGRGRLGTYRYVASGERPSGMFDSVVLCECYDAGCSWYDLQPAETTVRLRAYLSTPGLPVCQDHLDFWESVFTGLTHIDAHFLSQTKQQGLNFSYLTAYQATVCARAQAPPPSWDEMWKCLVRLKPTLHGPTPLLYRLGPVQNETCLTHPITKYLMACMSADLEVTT
In words: Ki determination, NS3 protease genotype 3a (fluorogenic depsipeptide substrate). Type of experiment: biochemical, hepatitis C virus. Conditions: read-out: Ki 3A, 200 pM enzyme, 20 μM NS4A peptide, 2 μM substrate. An excerpt:
The coding sequences for the genotype 3 HCV protease domain was amplified by RT-PCR using a Titan One Tube RT-PCR Kit (Roche, Indianapolis, Ind.) and RNA extracted from HCV-positive human serum (BBI Diagnostics, MA) using a QIAmp UltraSens Virus Kit (Qiagen, Valencia, Calif.). 5′ PCR primers were designed to encode N-terminal hexahistidine tags and to insert in-frame rTEV protease cleavage sites into the NS3 protease coding sequences. The resulting DNA fragments were cloned into pET28 yielding the expression vectors p28-N6H-Tev-NS3(181)1a and p28-N6H-Tev-NS3(181)3, respectively.
BL21AI bacteria (Invitrogen, Carlsbad, Calif.) were transformed with genotype 1b or 3 NS3 expression vectors and used to inoculate a 20 L fermentation vessel (Sartorius BBI System Inc., Bethlehem, Pa.), containing 18 L of fresh 2YT medium supplemented with 50 μg/mL kanamycin. When cell densities reached an OD600 of 1, the temperature of the cultures was reduced from 37° C. to 28° C. and induction was immediately initiated by the addition of 30 μM ZnSO4, 14 mM L-arabinose and 1 mM Isopropyl β-D-thiogalactoside (IPTG) final concentrations. Cells were harvested by centrifugation four hours post-induction and were stored as frozen pellets at −80° C. prior to NS3 protein purification.
Bacterial pellets collected from the expression of genotype 3 HCV NS3 protease were homogenized in Lysis Buffer (25 mM tris, pH 7.5 buffer containing 150 mM NaCl and 1 mM phenylmethanesulfonyl fluoride (PMSF)) and passed through a microfluidizer at 18,000 pounds/in^2. Homogenized cell lysates were centrifuged at 30,000×g for 30 minutes at 4° C. The resulting P1 pellets were washed with Wash Buffer I (25 mM tris, pH 7.5 containing 1% CHAPS) followed by centrifugation at 10,000×g for 30 minutes at 4° C. […] The resulting P3 pellets were resuspended in Solubilization Buffer (20 ml of 25 mM tris, pH 7.5 containing 150 mM NaCl and 8 M urea) and incubated at 4° C. for one hour. Solubilized proteins were passed through a 0.45 micron filter. Protein concentrations were measured and the solutions were adjusted to 40 mM DTT, incubated for 30 minutes at 4° C. and then quickly diluted into Refolding Buffer (25 mM tris, pH 8.5, 0.8 M Guanidine-HCl, 0.4 M L-Arginine, 10 mM ZnSO4) while stirring. Protein solutions were incubated at 4° C. overnight to allow refolding. Refolded proteases were centrifuged at 30,000×g for 10 minutes to remove residual precipitates. Final protein concentrations were then measured and the NS3 proteases were aliquoted, snap frozen in liquid nitrogen and stored at −80° C.
Purified NS3 protease domain (amino acids 1-181) of the genotype 1b and 3a virus were generated as above. The internally quenched fluorogenic depsipeptide substrate Ac-DED(Edans)-EEAbuψ[COO]ASK(Dabcyl)-NH2 and a synthetic peptide containing the hydrophobic core residues of the NS4A protein cofactor ([…]; NS4A peptide) were obtained from Anaspec, Inc. (San Jose, Calif.). Other chemicals and biochemicals were of reagent grade or better and were purchased from standard suppliers.
Reactions were run at room temperature in buffer consisting of 50 mM HEPES, 40% glycerol, 0.05% Triton X-100, 10 mM DTT, and 10% DMSO. The final assay solutions contained 50 pM NS3 genotype 1b protease or 200 pM genotype 3a protease, 20 μM NS4A peptide, and 4 μM substrate (genotype 1 b) or 2 μM substrate (genotype 3a). Inhibitor concentrations varied from 100 nM to 5 pM in 3-fold dilutions, and no-inhibitor controls were included.
Compound dilutions were made in DMSO at 20× final concentration. Reaction mixtures were prepared in 96-well assay plates. A solution of enzyme and NS4A peptide in assay buffer (25 μL volume with both reagents at 4× final concentration) was mixed with 45 μL assay buffer and 5 μL of either inhibitor or DMSO, and pre-incubated at room temperature for 1 hour. The reaction was started by addition of 25 μL substrate solution at 4× final concentration. […]
With `CC[C@@H]1C[C@]1(NC(=O)[C@@H]1[C@H](C)[C@@H]2CN1C(=O)[C@H](C(C)(C)C)NC(=O)O[C@@H]1C[C@H]1CCCCCc1nc3ccc(OC)cc3nc1O2)C(=O)NS(=O)(=O)C1(C)CC1` [Example 21, (1aR,5S,8S,9S,10R,22aR)-5-tert-butyl-N-[(1R,2R)-2-ethyl-1-{[(1-methylcyclopropyl)sulfonyl]carbamoyl}cyclopropyl]-14-methoxy-9-methyl-3,6-dioxo-1,1a,3,4,5,6,9,10,18,19,20,21,22,22a-tetradecahydro-8H-7,10-methanocyclopropa[18,19][1,10,3,6]dioxadiazacyclononadecino[11,12-b]quinoxaline-8-carboxamide], the inhibition constant (Ki) stood at 0.45 nM. Then `COc1ccc2nc3c(nc2c1)O[C@H]1CN(C(=O)[C@H](C(C)(C)C)NC(=O)O[C@@H]2C[C@H]2CCCCC3)[C@H](C(=O)N[C@]2(C(=O)NS(=O)(=O)C3CC3)C[C@H]2CCF)[C@@H]1C` [Example 22, (1aR,5S,8S,9S,10R,22aR)-5-tert-butyl-N-[(R1R,2S)-1-[(cyclopropylsulfonyl)carbamoyl]-2-(2-fluoroethyl)cyclopropyl]-14-methoxy-9-methyl-3,6-dioxo-1,1a,3,4,5,6,9,10,18,19,20,21,22,22a-tetradecahydro-8H-7,10-methanocyclopropa[18,19][1,10,3,6]dioxadiazacyclononadecino[11,12-b]quinoxaline-8-carboxamide], with 1.3 nM. In the case of `COc1ccc2nc3c(nc2c1)O[C@H]1CN(C(=O)[C@H](C(C)(C)C)NC(=O)O[C@@H]2C[C@H]2CCCCC3)[C@H](C(=O)N[C@]2(C(=O)NS(=O)(=O)C3(C)CC3)C[C@H]2CCF)[C@@H]1C` [Example 23, (1aR,5S,8S,9S,10R,22aR)-5-tert-butyl-N-[(1R,2S)-2-(2-fluoroethyl)-1-{[(1-methylcyclopropyl)sulfonyl]carbamoyl}cyclopropyl]-14-methoxy-9-methyl-3,6-dioxo-1,1a,3,4,5,6,9,10,18,19,20,21,22,22a-tetradecahydro-8H-7,10-methanocyclopropa[18,19][1,10,3,6]dioxadiazacyclononadecino[11,12-b]quinoxaline-8-carboxamide], the Ki came out at 1.1 nM. For the molecule `COc1ccc2nc3c(nc2c1)O[C@H]1CN(C(=O)[C@H](C(C)(C)C)NC(=O)O[C@@H]2C[C@H]2CCCCC3)[C@H](C(=O)N[C@]2(C(=O)NS(=O)(=O)C3CC3)C[C@H]2CC(F)F)[C@@H]1C` [Example 24, (1aR,5S,8S,9S,10R,22aR)-5-tert-butyl-N-[(1R,2S)-1-[(cyclopropylsulfonyl)carbamoyl]-2-(2,2-difluoroethyl)cyclopropyl]-14-methoxy-9-methyl-3,6-dioxo-1,1a,3,4,5,6,9,10,18,19,20,21,22,22a-tetradecahydro-8H-7,10-methanocyclopropa[18,19][1,10,3,6]dioxadiazacyclononadecino[11,12-b]quinoxaline-8-carboxamide], the inhibition constant Ki worked out at 0.92 nM. Then `COc1ccc2nc3c(nc2c1)O[C@H]1CN(C(=O)[C@H](C(C)(C)C)NC(=O)O[C@@H]2C[C@H]2CCCCC3)[C@H](C(=O)N[C@]2(C(=O)NS(=O)(=O)C3(C)CC3)C[C@H]2CC(F)F)[C@@H]1C` [Example 25, (1aR,5S,8S,9S,10R,22aR)-5-tert-butyl-N-[(1R,2S)-2-(2,2-difluoroethyl)-1-{[(1-methylcyclopropyl)sulfonyl]carbamoyl}cyclopropyl]-14-methoxy-9-methyl-3,6-dioxo-1,1a,3,4,5,6,9,10,18,19,20,21,22,22a-tetradecahydro-8H-7,10-methanocyclopropa[18,19][1,10,3,6]dioxadiazacyclononadecino[11,12-b]quinoxaline-8-carboxamide], with 0.39 nM.
